According to PubChem BioAssay AID1259411 (Chemical Carcinogenesis Research Information System (CCRIS), 2018):
Active and inactive are the calls of the source. The rule behind the calls is not given here.

Test system: rodent carcinogenicity bioassays, tumor incidence
Experiment: CCRIS carcinogenicity studies
Procedure, shortened: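 Archive of carcinogenicity, mutagenicity, tumor promotion and tumor inhibition results drawn from journals, NCI reports and other sources, expert-reviewed; covers 1985-2011 and is no longer updated.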

CC(=O)[O-].CC(=O)[O-].[OH-].[OH-].[OH-].[OH-].[Pb+2].[Pb+2].[Pb+2]
carcinogen call (Species: MOUSE, Strain/Sex: STRAIN-A/MALE,FEMALE, Route: INTRAPERITONEAL, Dose: 30, 75, 150 MG/KG 3/WK FOR 5 WK, Dose: 30, 75, 150 MG/KG 3/WK FOR 5 WK, Tumor Site: Type of Lesion: LUNG: ADENOMA): active; positive | carcinogen call (Species: MOUSE, Strain/Sex: SWISS/MALE, Route: ORAL, Dose: 0.1% IN DIET FOR TWO YR, Tumor Site: Type of Lesion: KIDNEY: ADENOMA, CARCINOMA): active; positive | carcinogen call (Species: RAT, Strain/Sex: SPRAGUE-DAWLEY/MALE, Route: ORAL, Dose: 1% IN DIET, Tumor Site: Type of Lesion: KIDNEY: ADENOMA, CARCINOMA, BRAIN: GLIOMA): active; positive | carcinogen call (Species: RAT, Strain/Sex: WISTAR/MALE,FEMALE, Route: ORAL, Dose: 0.1, 1.0% IN DIET FOR UP TO 29 MO, Tumor Site: Type of Lesion: KIDNEY: CARCINOMA): active; positive

FC(F)OC(Cl)C(F)(F)F (stereo not given)
carcinogen call (Species: MOUSE, Strain/Sex: SWISS/FEMALE, Route: INHALATION, Dose: 0, 0.1, 0.4% IN AIR 4 HR/D 5 D/WK FOR 78 WK (STUDY DURATION: 81 WK), Dose: 0, 0.1, 0.4% IN AIR 4 HR/D 5 D/WK FOR 78 WK (STUDY DURATION: 81 WK)): inactive; negative | carcinogen call (Species: MOUSE, Strain/Sex: SWISS/MALE, Route: INHALATION, Dose: 0, 0.1, 0.4% IN AIR 4 HR/D 5 D/WK FOR 78 WK (STUDY DURATION: 81 WK), Dose: 0, 0.1, 0.4% IN AIR 4 HR/D 5 D/WK FOR 78 WK (STUDY DURATION: 81 WK)): inactive; negative

Oc1ccc(-c2c(Cl)cc(Cl)cc2Cl)cc1
carcinogen call (Species: MOUSE, Strain/Sex: BALB/CCRGL/FEMALE, Route: SUBCUTANEOUS, Dose: 20 UG DAILY FOR 5 D BEGINNING 16 HR AFTER BIRTH (STUDY DURATION: 20 MO), Tumor Site: Type of Lesion: MAMMARY GLAND: CARCINOMA (5/33), CERVICOVAGINAL TRACT: CARCINOMA (2/33), LUNG TUMORS (3/33), Tumor Site: Type of Lesion: MAMMARY GLAND: CARCINOMA (5/33), CERVICOVAGINAL TRACT: CARCINOMA (2/33), LUNG TUMORS (3/33)): active; positive; (statistically significant for total number of tumors) | carcinogen call (Species: MOUSE, Strain/Sex: BALB/CCRGL/FEMALE, Route: SUBCUTANEOUS, Dose: 200 UG DAILY FOR 5 D BEGINNING 16 HR AFTER BIRTH (STUDY DURATION: 20 MO), Tumor Site: Type of Lesion: CERVICOVAGINAL TRACT: CARCINOMA (10/22)): active; positive

CC(=O)N(O)c1ccc(/C=C/c2ccccc2)cc1
carcinogen call (Species: RAT, Strain/Sex: STRAIN-CD/FEMALE, Route: INTRAPERITONEAL, Dose: 0, 10 UMOL/KG BW 2/WK FOR 6 WK (STUDY DURATION: 62 WK), Tumor Site: Type of Lesion: LIVER: NEOPLASTIC NODULE, MAMMARY GLAND: TUMOR, EAR DUCT: TUMOR, PITUITARY GLAND: CARCINOMA, Tumor Site: Type of Lesion: LIVER: NEOPLASTIC NODULE, MAMMARY GLAND: TUMOR, EAR DUCT: TUMOR, PITUITARY GLAND: CARCINOMA): active; positive | carcinogen call (Species: RAT, Strain/Sex: STRAIN-CD/MALE, Route: INTRAPERITONEAL, Dose: 0, 10 UMOL/KG BW 2/WK FOR 6 WK (STUDY DURATION: 62 WK), Tumor Site: Type of Lesion: TESTICLE: MESOTHELIOMA, PANCREAS(ACINUS): ADENOMA, EAR DUCT: CARCINOMA, Tumor Site: Type of Lesion: TESTICLE: MESOTHELIOMA, PANCREAS(ACINUS): ADENOMA, EAR DUCT: CARCINOMA): active; positive

O=[N+]([O-])c1cccc2c1ccc1c3ccccc3ccc21
carcinogen call (Species: MOUSE, Strain/Sex: ICR/FEMALE, Route: INTRAPERITONEAL, Dose: 0, 100 NMOL (TOTAL DOSE) ADMINISTERED IN 3 SUBDOSES OF 1/7, 2/7, AND 4/7 ON DAYS 1, 8 AND 15 OF LIFE, RESPECTIVELY (STUD): inactive; negative | carcinogen call (Species: MOUSE, Strain/Sex: ICR/MALE, Route: INTRAPERITONEAL, Dose: 0, 100 NMOL (TOTAL DOSE) ADMINISTERED IN 3 SUBDOSES OF 1/7, 2/7, AND 4/7 ON DAYS 1, 8 AND 15 OF LIFE, RESPECTIVELY (STUD): inactive; negative

O=P1(NCCCl)OCCCN1CCCl (stereo not given)
carcinogen call (Species: MOUSE, Strain/Sex: B6C3F1/FEMALE, Route: INTRAPERITONEAL, Dose: 0, 10, 20 MG/KG IN BUFFERED SALINE 3/WK FOR 52 WK (STUDY DURATION: 79-80 WK), Dose: 0, 10, 20 MG/KG IN BUFFERED SALINE 3/WK FOR 52 WK (STUDY DURATION: 79-80 WK), Tumor Site: Type of Lesion: LYMPHATIC SYSTEM: MALIGNANT LYMPHOMA): active; positive | carcinogen call (Species: MOUSE, Strain/Sex: B6C3F1/MALE, Route: INTRAPERITONEAL, Dose: 0, 10, 20 MG/KG IN BUFFERED SALINE 3/WK FOR 52 WK (STUDY DURATION: 79-80 WK), Dose: 0, 10, 20 MG/KG IN BUFFERED SALINE 3/WK FOR 52 WK (STUDY DURATION: 79-80 WK)): inactive; negative | carcinogen call (Species: MOUSE, Strain/Sex: STRAIN-A/MALE,FEMALE, Route: INTRAPERITONEAL, Dose: 0, 18.8, 47 MG/KG IN WATER 3/WK FOR 8 WK, Dose: 0, 18.8, 47 MG/KG IN WATER 3/WK FOR 8 WK, Tumor Site: Type of Lesion: LUNG): active; positive | carcinogen call (Species: RAT, Strain/Sex: SPRAGUE-DAWLEY/FEMALE, Route: INTRAPERITONEAL, Dose: 0, 6, 12 MG/KG IN BUFFERED SALINE 3/WK FOR 52 WK (STUDY DURATION: 79-83 WK), Dose: 0, 6, 12 MG/KG IN BUFFERED SALINE 3/WK FOR 52 WK (STUDY DURATION: 79-83 WK), Tumor Site: Type of Lesion: MAMMARY GLAND: CYSTADENOMA OR CYSTADENOCARCINOMA, UTERUS: LEIOMYOSARCOMA;ADRENAL GLAND: CORTICAL ADENOMA, Tumor Site: Type of Lesion: MAMMARY GLAND: CYSTADENOMA OR CYSTADENOCARCINOMA, UTERUS: LEIOMYOSARCOMA;ADRENAL GLAND: CORTICAL ADENOMA): active; positive | carcinogen call (Species: RAT, Strain/Sex: SPRAGUE-DAWLEY/MALE, Route: INTRAPERITONEAL, Dose: 0, 6, 12 MG/KG IN BUFFERED SALINE 3/WK FOR 52 WK (STUDY DURATION: 79-83 WK), Dose: 0, 6, 12 MG/KG IN BUFFERED SALINE 3/WK FOR 52 WK (STUDY DURATION: 79-83 WK)): inactive; negative

CNC[C@H](O)c1cccc(O)c1
carcinogen call (Species: MOUSE, Strain/Sex: B6C3F1/FEMALE, Route: ORAL, Dose: 0, 1250, 2500 PPM IN DIET FOR 103 WK, Dose: 0, 1250, 2500 PPM IN DIET FOR 103 WK): inactive; negative | carcinogen call (Species: MOUSE, Strain/Sex: B6C3F1/MALE, Route: ORAL, Dose: 0, 1250, 2500 PPM IN DIET FOR 103 WK, Dose: 0, 1250, 2500 PPM IN DIET FOR 103 WK): inactive; negative | carcinogen call (Species: RAT, Strain/Sex: F344/FEMALE, Route: ORAL, Dose: 0, 620, 1250 PPM IN DIET FOR 103 WK, Dose: 0, 620, 1250 PPM IN DIET FOR 103 WK): inactive; negative | carcinogen call (Species: RAT, Strain/Sex: F344/MALE, Route: ORAL, Dose: 0, 620, 1250 PPM IN DIET FOR 103 WK, Dose: 0, 620, 1250 PPM IN DIET FOR 103 WK): inactive; negative

Cc1cccc(C)c1NC1=NCCCS1
carcinogen call (Species: RAT, Strain/Sex: F344/MALE, Route: ORAL, Dose: 0, 1,000 PPM IN FEED FOR 52 WK (STUDY DURATION: 52 WK), Tumor Site: Type of Lesion: THYROID: ADENOMA): active; positive

CC(=O)CN(N=O)C(=O)NCCCl
carcinogen call (Species: RAT, Strain/Sex: F344/FEMALE, Route: GAVAGE, Dose: 0, 11.5 MG/ML IN CORN OIL/ETHYL ACETATE (2:1) 2/WK FOR 30 WK (STUDY DURATION: LIFETIME), Tumor Site: Type of Lesion: LIVER: TUMOR): active; positive | carcinogen call (Species: RAT, Strain/Sex: F344/FEMALE, Route: ORAL, Dose: 0, 46 MG/L IN DRINKING WATER 5 D/WK FOR 30 WK (STUDY DURATION: LIFETIME)): inactive; negative | carcinogen call (Species: RAT, Strain/Sex: F344/MALE, Route: GAVAGE, Dose: 0, 11.5 MG/ML IN CORN OIL/ETHYL ACETATE (2:1) 2/WK FOR 30 WK (STUDY DURATION: LIFETIME), Tumor Site: Type of Lesion: NERVOUS SYSTEM: TUMOR, SMALL INTESTINE: TUMOR): active; positive | carcinogen call (Species: RAT, Strain/Sex: F344/MALE, Route: ORAL, Dose: 0, 46 MG/L IN DRINKING WATER 5 D/WK FOR 30 WK (STUDY DURATION: LIFETIME), Tumor Site: Type of Lesion: LUNG: TUMOR, SKIN: TUMOR): active; positive

CC1=C[C@H]2O[C@@H]3[C@H](O)[C@@H](O)[C@](C)([C@@]2(CO)[C@H](O)C1=O)[C@]31CO1
carcinogen call (Species: MOUSE, Strain/Sex: C57BL/6CRSLC/FEMALE, Route: ORAL, Dose: 0, 6, 12, 30 PPM IN DIET FOR 104 WK (STUDY DURATION: 104 WK), Dose: 0, 6, 12, 30 PPM IN DIET FOR 104 WK (STUDY DURATION: 104 WK)): inactive; negative

[As]
carcinogen call (Species: HUMAN, Route: INHALATION, ORAL, Tumor Site: Type of Lesion: LUNG, INTEGUMENTARY SYSTEM (SKIN)): active; positive

O=C1OCCO1
carcinogen call (Species: RAT, Strain/Sex: STRAIN-CD/FEMALE, Route: ORAL, Dose: 25000, 50000 PPM IN DIET FOR 78 WK): inactive; negative | carcinogen call (Species: RAT, Strain/Sex: STRAIN-CD/MALE, Route: ORAL, Dose: 25000, 44360 PPM IN DIET FOR 78 WK, TWA): inactive; negative
